Biological target: T1, SlFKBP12 (Solanum lycopersicum, UniProt A0A3Q7ERC2)
T1 construct: gene FKBP12
T1 sequence (A0A3Q7ERC2 1-112): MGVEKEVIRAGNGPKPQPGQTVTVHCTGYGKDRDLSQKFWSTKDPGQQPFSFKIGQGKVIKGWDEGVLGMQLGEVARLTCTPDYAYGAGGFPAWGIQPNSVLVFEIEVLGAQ
Assay: protein gel shifting assay: native vs denatured extracts of treated seedlings, anti-HA immunoblot
Conditions: 0, 1, 5, 10 uM rapamycin for 24 h on seedlings; indirect read-out of ternary FKBP12-rapamycin-TOR complex (host Arabidopsis TOR)

## CO[C@H]1C[C@@H]2CC[C@@H](C)[C@@](O)(O2)C(=O)C(=O)N2CCCC[C@H]2C(=O)O[C@H]([C@H](C)C[C@@H]2CC[C@@H](O)[C@H](OC)C2)CC(=O)[C@H](C)/C=C(\C)[C@@H](O)[C@@H](OC)C(=O)[C@H](C)C[C@H](C)/C=C/C=C/C=C/1C [rapamycin]
  protein gel shifting assay: native vs denatured extracts of treated seedlings, a: with increasing of rapamycin, SlFKBP12 protein level displayed a decline trend in native stage

Reference: PMC5114585, “Tomato FK506 Binding Protein 12KD (FKBP12) Mediates the Interaction between Rapamycin and Target of Rapamycin (TOR)” (Frontiers in Plant Science, 2016)
